Reference: patent US7511033B2, “Dihydro-benzo[B][1,4]diazepin-2-one sulfonamide derivatives” (Hoffmann-La Roche Inc., priority 2007, dated 2009)

Legend:
rat mGlu2 receptor = biological target: T1, rat mGlu2 receptor (Rattus norvegicus, UniProt P31421); assay: [3H]-LY354740 binding on mGlu2 transfected CHO cell membranes; details: inhibition of 10 nM [3H]-LY354740 binding, room temperature, 1 hour
T1 construct: expressed in transfected cells; membranes prepared from them
Source text: [^3H]-LY354740 Binding on mGlu2 Transfected CHO Cell Membranes. Transfection and Cell Culture
cDNA encoding the rat mGlu2 receptor protein in pBluescript II was subcloned into the eukaryotic expression vector pcDNA I-amp from Invitrogen Ltd (Paisley, UK). This vector construct (pcD1 mGR2) was co-transfected with a psvNeo plasmid encoding the gene for neomycin resistance, into CHO cells by a modified calcium phosphate method described by Chen & Okayama (1988). The cells were maintained in Dulbecco's Modified Eagle medium with reduced L-glutamine (1 mM final concentration), 36 mg/L L-Proline and 10% dialysed foetal calf serum from Gibco-Invitrogen; the medium was supplemented with 500 microM α-methyl-4-carboxyphenylglycine (MCPG). Selection was made in the presence of G-418 (300 ug/ml final concentration). Clones were identified by reverse transcription of 5 μg total RNA, followed by PCR using mGlu2 receptor specific primers 5′-[…]-3′ and 5′-[…]-3′ in 60 mM Tris HCl (pH 10), 15 mM (NH4)2SO4, 2 mM MgCl2, 25 units/ml Taq Polymerase with 30 cycles annealing at 60° C. for 1 min., extension at 72° C. for 30 s, and 1 min. 95° C. denaturation.
Cells, cultured as above, were harvested and washed three times with cold PBS and frozen at −80° C. The pellet was resuspended in cold 20 mM HEPES-NaOH buffer containing 10 mM EDTA (pH 7.4), and homogenized with a polytron (Kinematica, AG, Littau, Switzerland) for 10 s at 10 000 rpm. After centrifugation for 30 min. at 4° C., the pellet was washed once with cold 20 mM HEPES-NaOH buffer containing 0.1 mM EDTA, (pH 7.4). After a second centrifugation for 30 min. at 4° C. the pellet was resuspended in cold 20 mM HEPES-NaOH buffer containing 0.1 mM EDTA, (pH 7.4). Protein content was measured using the Micro BCA method from Pierce-Perbio (Rockford, Ill., USA) using bovine serum albumin as standard.
After thawing, the membranes were resuspended in cold 50 mM Tris-HCl buffer containing 2 mM MgCl2 (pH 7.4) (binding buffer). The final concentration of the membranes in the assays was 25 μg protein/ml. Inhibition experiments were performed with membranes incubated with 10 nM [^3H]-LY354740 at room temperature, for 1 hour, in presence of various concentrations of the compound to be tested. Following the incubations, membranes were filtered onto Whatmann GF/B glass fiber filters or onto GF/B Unifilter plates and washed 5 times with cold binding buffer. Non specific binding was measured in the presence of 10 μM (2S,2′R,3′R)-2-(2′3′-Dicarboxycyclopropyl)glycine (DCG IV from Tocris, Ellisville, Mo. USA). After transfer of the filters into plastic vials containing 10 ml of Ultima-gold scintillation fluid from Perkin-Elmer (Boston, Mass., USA), the radioactivity was measured by liquid scintillation in a Tri-Carb 2500 TR counter (Packard, Zürich, Switzerland). For 96-Unifilter plates the radioactivity was measured after addition of Microscint 40 scintillation fluid (Perkin Elmer, Boston Mass.) using a TopCount NXT (Packard)
The inhibition curves were fitted with a four parameter logistic equation giving IC50 values, and Hill coefficients.

T1 sequence (P31421 19-872): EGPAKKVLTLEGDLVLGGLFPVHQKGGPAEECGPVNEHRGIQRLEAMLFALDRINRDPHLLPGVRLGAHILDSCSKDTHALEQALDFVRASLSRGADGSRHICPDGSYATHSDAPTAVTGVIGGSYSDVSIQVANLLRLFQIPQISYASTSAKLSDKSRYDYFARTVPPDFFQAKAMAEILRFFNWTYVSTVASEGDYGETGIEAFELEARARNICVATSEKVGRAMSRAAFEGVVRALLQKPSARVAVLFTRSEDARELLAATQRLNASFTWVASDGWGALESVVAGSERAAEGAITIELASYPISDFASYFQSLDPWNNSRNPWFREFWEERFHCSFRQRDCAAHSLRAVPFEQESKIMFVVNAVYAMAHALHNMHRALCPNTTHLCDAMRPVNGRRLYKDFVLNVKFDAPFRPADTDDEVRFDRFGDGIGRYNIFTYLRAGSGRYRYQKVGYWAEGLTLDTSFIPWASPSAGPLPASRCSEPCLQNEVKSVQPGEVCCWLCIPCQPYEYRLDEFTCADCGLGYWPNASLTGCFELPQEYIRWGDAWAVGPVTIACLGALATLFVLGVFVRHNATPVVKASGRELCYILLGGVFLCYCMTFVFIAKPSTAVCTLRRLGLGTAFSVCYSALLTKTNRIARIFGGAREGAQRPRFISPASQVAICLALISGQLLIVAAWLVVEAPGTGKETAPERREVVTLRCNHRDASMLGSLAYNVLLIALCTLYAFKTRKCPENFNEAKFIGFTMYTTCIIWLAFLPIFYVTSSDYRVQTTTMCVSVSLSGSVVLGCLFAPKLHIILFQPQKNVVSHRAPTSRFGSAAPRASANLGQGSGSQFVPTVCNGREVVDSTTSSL

| SMILES | melting point | Ki (rat mGlu2 receptor) [nM] |
| --- | --- | --- |
| CC(C)(C)NS(=O)(=O)c1cccc(-c2cccc(C3=Nc4ccc(C(F)(F)F)cc4NC(=O)C3)c2)c1 [Example 4, 3′-(4-Oxo-7-trifluoromethyl-4,5-dihydro-3H-benzo[b][1,4]diazepin-2-yl)-biphenyl-3-sulfonic acid tert-butylamide] | 179 to 181 °C | 12 |
| Cc1cc2c(cc1C(F)(F)F)NC(=O)CC(c1cccc(-c3cccc(S(N)(=O)=O)c3)c1)=N2 [Example 3, 3′-(8-Methyl-4-oxo-7-trifluoromethyl-4,5-dihydro-3H-benzo[b][1,4]diazepin-2-yl)-biphenyl-3-sulfonic acid amide] | 235 to 239 °C (dec.) | 0.9 |
| CC(C)(C)NS(=O)(=O)c1ccc(-c2cccc(C3=Nc4ccc(C(F)(F)F)cc4NC(=O)C3)c2)cc1 [Example 5, 3′-(4-Oxo-7-trifluoromethyl-4,5-dihydro-3H-benzo[b][1,4]diazepin-2-yl)-biphenyl-4-sulfonic acid tert-butylamide] | 229 to 233 °C | 16 |
| Cc1cc2c(cc1C(F)(F)F)NC(=O)CC(c1cccc(-c3cccc(S(=O)(=O)NC(C)(C)C)c3)c1)=N2 [Example 2, 3′-(8-Methyl-4-oxo-7-trifluoromethyl-4,5-dihydro-3H-benzo[b][1,4]diazepin-2-yl)-biphenyl-3-sulfonic acid tert-butylamide] | 133 °C (dec.) | 20 |
| NS(=O)(=O)c1cccc(-c2cccc(C3=Nc4ccc(C(F)(F)F)cc4NC(=O)C3)c2)c1 [Example 8, 3′-(4-Oxo-7-trifluoromethyl-4,5-dihydro-3H-benzo[b][1,4]diazepin-2-yl)-biphenyl-3-sulfonic acid amide] | 170 °C (dec.) | 1.7 |
| NS(=O)(=O)c1ccc(-c2cccc(C3=Nc4ccc(-c5ccccc5F)cc4NC(=O)C3)c2)cc1 [Example 16, 3′-[7-(2-Fluoro-phenyl)-4-oxo-4,5-dihydro-3H-benzo[b][1,4]diazepin-2-yl]-biphenyl-4-sulfonic acid amide] | 240 to 250 °C (dec.) | 5.6 |
| CCOc1cc2c(cc1C(F)(F)F)NC(=O)CC(c1cccc(-c3cccc(S(N)(=O)=O)c3)c1)=N2 [Example 10, 3′-(8-Ethoxy-4-oxo-7-trifluoromethyl-4,5-dihydro-3H-benzo[b][1,4]diazepin-2-yl)-biphenyl-3-sulfonic acid amide] | 210 to 220 °C (dec.) | 2.7 |
| CCOc1cc2c(cc1C(F)(F)F)NC(=O)CC(c1cccc(-c3cccc(S(=O)(=O)NC(C)(C)C)c3)c1)=N2 [Example 6, 3′-(8-Ethoxy-4-oxo-7-trifluoromethyl-4,5-dihydro-3H-benzo[b][1,4]diazepin-2-yl)-biphenyl-3-sulfonic acid tert-butylamide] | 215 to 218 °C | 9 |
| NS(=O)(=O)c1cccc(-c2cccc(C3=Nc4ccc(-c5ccccc5F)cc4NC(=O)C3)c2)c1 [Example 17, 3′-[7-(2-Fluoro-phenyl)-4-oxo-4,5-dihydro-3H-benzo[b][1,4]diazepin-2-yl]-biphenyl-3-sulfonic acid amide] | 230 to 232 °C | 2.2 |
| CN(C)c1cc2c(cc1C(F)(F)F)NC(=O)CC(c1cccc(-c3cccc(S(N)(=O)=O)c3)c1)=N2 [Example 13, 3′-(8-Dimethylamino-4-oxo-7-trifluoromethyl-4,5-dihydro-3H-benzo[b][1,4]diazepin-2-yl)-biphenyl-3-sulfonic acid amide] | 258 °C (dec.) | 1.2 |

The next lines start with the values.

| melting point | Ki (rat mGlu2 receptor) [nM] | SMILES |
| --- | --- | --- |
| 195 to 210 °C (dec.) | 3 | NS(=O)(=O)c1ccc(-c2cccc(C3=Nc4ccc(C(F)(F)F)cc4NC(=O)C3)c2)cc1 [Example 9, 3′-(4-Oxo-7-trifluoromethyl-4,5-dihydro-3H-benzo[b][1,4]diazepin-2-yl)-biphenyl-4-sulfonic acid amide] |
| 232 °C (dec.) | 8.7 | CC(C)CN(C)c1cc2c(cc1C(F)(F)F)NC(=O)CC(c1cccc(-c3cccc(S(N)(=O)=O)c3)c1)=N2 [Example 15, 3′-[8-(Isobutyl-methyl-amino)-4-oxo-7-trifluoromethyl-4,5-dihydro-3H-benzo[b][1,4]diazepin-2-yl]-biphenyl-3-sulfonic acid amide] |
| 245 to 250 °C (dec.) | 3 | CCOc1cc2c(cc1C(F)(F)F)NC(=O)CC(c1cccc(-c3ccc(S(N)(=O)=O)cc3)c1)=N2 [Example 11, 3′-(8-Ethoxy-4-oxo-7-trifluoromethyl-4,5-dihydro-3H-benzo[b][1,4]diazepin-2-yl)-biphenyl-4-sulfonic acid amide] |
| > 260 °C | 1.9 | Cc1cc2c(cc1C(F)(F)F)NC(=O)CC(c1cccc(-c3ccc(S(N)(=O)=O)cc3)c1)=N2 [Example 1, 3′-(8-Methyl-4-oxo-7-trifluoromethyl-4,5-dihydro-3H-benzo[b][1,4]diazepin-2-yl)-biphenyl-4-sulfonic acid amide] |
| 236 °C (dec.) | 17 | CC(C)CN(C)c1cc2c(cc1C(F)(F)F)NC(=O)CC(c1cccc(-c3ccc(S(N)(=O)=O)cc3)c1)=N2 [Example 14, 3′-[8-(Isobutyl-methyl-amino)-4-oxo-7-trifluoromethyl-4,5-dihydro-3H-benzo[b][1,4]diazepin-2-yl]-biphenyl-4-sulfonic acid amide] |
| 251 °C (dec.) | 3.6 | CC(C)CNc1cc2c(cc1C(F)(F)F)NC(=O)CC(c1cccc(-c3cccc(S(N)(=O)=O)c3)c1)=N2 [Example 19, 3′-(8-Isobutylamino-4-oxo-7-trifluoromethyl-4,5-dihydro-3H-benzo[b][1,4]diazepin-2-yl)-biphenyl-3-sulfonic acid amide] |
| 246 °C (dec.) | 3.1 | CN(C)c1cc2c(cc1C(F)(F)F)NC(=O)CC(c1cccc(-c3ccc(S(N)(=O)=O)cc3)c1)=N2 [Example 12, 3′-(8-Dimethylamino-4-oxo-7-trifluoromethyl-4,5-dihydro-3H-benzo[b][1,4]diazepin-2-yl)-biphenyl-4-sulfonic acid amide] |
| > 260 °C | 30 | CCOc1cc2c(cc1C(F)(F)F)NC(=O)CC(c1cccc(-c3ccc(S(=O)(=O)NC(C)(C)C)cc3)c1)=N2 [Example 7, 3′-(8-Ethoxy-4-oxo-7-trifluoromethyl-4,5-dihydro-3H-benzo[b][1,4]diazepin-2-yl)-biphenyl-4-sulfonic acid tert-butylamide] |
|  | 21 | CC(C)CNc1cc2c(cc1C(F)(F)F)NC(=O)CC(c1cccc(-c3ccc(S(N)(=O)=O)cc3)c1)=N2 [Example 18, 3′-(8-Isobutylamino-4-oxo-7-trifluoromethyl-4,5-dihydro-3H-benzo[b][1,4]diazepin-2-yl)-biphenyl-4-sulfonic acid amide] |
